Measured values: patent publication US6245817A, “NPY5 receptor antagonists and methods for using same” (Bayer Corporation, priority 1999, dated 2001)

Assays:
Human NPY2 receptor = biological target: T1, Human NPY2 receptor (Homo sapiens, UniProt P49146); test: Human NPY2 Receptor Binding Assay; settings: [125I]PYY; read-out: hPPY2 IC50
T1 sequence (P49146 1-381): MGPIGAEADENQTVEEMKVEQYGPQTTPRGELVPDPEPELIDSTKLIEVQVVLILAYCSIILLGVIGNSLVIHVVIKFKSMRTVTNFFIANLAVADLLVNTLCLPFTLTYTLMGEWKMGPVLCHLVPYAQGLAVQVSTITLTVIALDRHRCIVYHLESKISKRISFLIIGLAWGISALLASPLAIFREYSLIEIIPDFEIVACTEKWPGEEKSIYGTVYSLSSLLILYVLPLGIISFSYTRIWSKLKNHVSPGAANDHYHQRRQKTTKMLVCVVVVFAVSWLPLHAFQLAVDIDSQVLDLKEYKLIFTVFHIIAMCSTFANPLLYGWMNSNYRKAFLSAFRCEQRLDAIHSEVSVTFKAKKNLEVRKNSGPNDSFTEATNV

Human NPY1 Receptor = biological target: T2, Human NPY1 Receptor (Homo sapiens, UniProt P25929); test: Human NPY1 Receptor Binding Assay; settings: SK-N-MC cells, [125I]PYY; read-out: hNPY1 IC50
T2 sequence (P25929 1-384): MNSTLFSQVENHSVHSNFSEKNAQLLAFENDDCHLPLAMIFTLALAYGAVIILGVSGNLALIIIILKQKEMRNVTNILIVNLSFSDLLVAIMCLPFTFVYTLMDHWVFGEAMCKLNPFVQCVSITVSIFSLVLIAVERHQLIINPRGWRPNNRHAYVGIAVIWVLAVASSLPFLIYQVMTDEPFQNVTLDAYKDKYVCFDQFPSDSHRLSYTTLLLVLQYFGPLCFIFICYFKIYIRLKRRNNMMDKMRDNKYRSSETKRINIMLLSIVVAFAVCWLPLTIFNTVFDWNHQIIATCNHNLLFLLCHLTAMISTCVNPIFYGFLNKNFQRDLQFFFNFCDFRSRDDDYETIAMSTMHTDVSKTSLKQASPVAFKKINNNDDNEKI

Human NPY4/PP1 receptor = Human NPY4/PP1 receptor (Homo sapiens, UniProt P50391); test: Human NPY4/PP1 Receptor Binding Assay; settings: [125I]human PP; read-out: hNPY4 IC50
Human NPY4/PP1 receptor, sequence (P50391 whole entry): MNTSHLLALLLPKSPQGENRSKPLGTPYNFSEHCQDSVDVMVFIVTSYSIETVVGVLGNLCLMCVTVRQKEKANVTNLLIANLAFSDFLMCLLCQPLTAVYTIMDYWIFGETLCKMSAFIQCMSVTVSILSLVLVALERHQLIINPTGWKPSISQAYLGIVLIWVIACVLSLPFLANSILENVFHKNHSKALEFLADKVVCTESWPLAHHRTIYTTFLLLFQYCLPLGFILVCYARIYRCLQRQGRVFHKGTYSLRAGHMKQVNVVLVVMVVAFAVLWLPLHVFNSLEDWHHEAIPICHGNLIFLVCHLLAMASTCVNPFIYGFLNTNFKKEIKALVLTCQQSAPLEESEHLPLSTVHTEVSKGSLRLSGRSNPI

Human NPY5 Receptor = biological target: T3, Human NPY5 Receptor (Homo sapiens, UniProt Q15761); test: Human NPY5 Receptor Binding Assay; settings: [125I]PYY; read-out: hNPY5 IC50
T3 sequence (Q15761 1-445): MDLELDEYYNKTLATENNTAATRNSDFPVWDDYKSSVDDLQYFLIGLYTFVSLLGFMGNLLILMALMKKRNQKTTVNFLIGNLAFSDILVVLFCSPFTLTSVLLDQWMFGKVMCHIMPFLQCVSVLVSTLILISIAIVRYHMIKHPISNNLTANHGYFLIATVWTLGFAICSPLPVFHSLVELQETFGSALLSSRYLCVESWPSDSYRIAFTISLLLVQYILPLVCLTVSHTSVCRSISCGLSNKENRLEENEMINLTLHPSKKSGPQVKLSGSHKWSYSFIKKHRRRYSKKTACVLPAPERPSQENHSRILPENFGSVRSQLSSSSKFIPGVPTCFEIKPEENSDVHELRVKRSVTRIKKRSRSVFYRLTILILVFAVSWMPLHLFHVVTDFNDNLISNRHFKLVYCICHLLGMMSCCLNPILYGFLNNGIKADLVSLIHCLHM

Rat NPY5 Receptor = biological target: T4, Rat NPY5 Receptor (Rattus norvegicus, UniProt Q63634); test: Rat NPY5 Receptor Binding Assay; settings: [125I]PYY; read-out: rNPY5 IC50
T4 sequence (Q63634 1-445): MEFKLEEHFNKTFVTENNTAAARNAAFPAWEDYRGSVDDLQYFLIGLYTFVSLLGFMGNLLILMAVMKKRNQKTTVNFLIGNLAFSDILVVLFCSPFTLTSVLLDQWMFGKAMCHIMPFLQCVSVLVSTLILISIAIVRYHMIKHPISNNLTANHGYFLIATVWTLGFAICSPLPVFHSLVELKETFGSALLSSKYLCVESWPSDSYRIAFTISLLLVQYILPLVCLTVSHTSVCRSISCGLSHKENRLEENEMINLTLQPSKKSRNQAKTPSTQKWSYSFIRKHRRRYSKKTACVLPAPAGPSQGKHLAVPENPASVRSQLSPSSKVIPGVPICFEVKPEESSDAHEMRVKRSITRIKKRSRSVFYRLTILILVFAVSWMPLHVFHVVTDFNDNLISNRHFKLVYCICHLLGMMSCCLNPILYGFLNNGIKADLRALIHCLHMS

| IC50 (Human NPY2 receptor) [µM] | IC50 (Human NPY1 Receptor) [µM] | IC50 (Human NPY4/PP1 receptor) [µM] | IC50 (Human NPY5 Receptor) [µM] | IC50 (Rat NPY5 Receptor) [µM] | SMILES |
| --- | --- | --- | --- | --- | --- |
| > 5 | > 5 | > 5 | > 10 | > 10 | CN1CCN=C1SCC(=O)Nc1ccc(F)cc1 [Compound 146, N-(4-Fluoro-phenyl)-2-(1-methyl-4,5-dihydro-1H-imidazol-2-ylsulfanyl)-acetamide, reference compound] |
| > 5 | > 5 | > 5 | > 10 | > 10 | O=C(CSc1n[nH]c(=O)n1-c1cccc(F)c1)Nc1ccc(Cl)cc1 [Compound 147, reference compound] |
| > 5 | > 5 | > 5 | 4 | 2.4 | CCC(C)c1ccc(NC(=O)CSc2nccn2C)cc1 (centres unmarked) [Compound 148, N-(4-sec-Butyl-phenyl)-2-(1-methyl-1H-imidazo1-2-ylsulfanyl)-acetamide, reference compound] |
| > 5 | > 5 | > 5 | 0.24 | 0.28 | Cc1ccc(SCC(=O)Nc2cccc(C#N)c2)cc1 [Compound 151, N-(3-Cyano-phenyl)-2-p-tolylsulfanyl-acetamide, reference compound] |
| > 5 | > 5 | > 5 | > 10 | > 10 | Cn1c(CN2C(=O)CSc3ccc(C(F)(F)F)cc32)nnc1SCC(=O)Nc1ccccc1 [Compound 152, 2-[4-Methyl-5-(3-oxo-6-trifluornmethyl-2,3-dihydro-benzo[1,4]thiazin-4-ylmethyl)-4H-[1,2,4]triazol-3-ylsulfanyl]-N-phenyl-acetamide, reference compound] |
| > 5 | > 5 | > 5 | > 10 | 10 | Cn1c(-c2ccc(Cl)cc2)cnc1SCC(=O)Nc1ccc(Cl)cc1 [Compound 154, N-(4-Chloro-phenyl)-2-[5-(4-chloro-phenyl)-1-methyl-1H-imidazol-2-ylsulfanyl]-acetamide, reference compound] |
| > 5 | > 5 | > 5 | > 10 | > 10 | CC(C)c1ccc(NC(=O)CSc2nccn2C)cc1 [Compound 155, N-(4-Isopropyl-phenyl)-2-(1-methyl-1H-imidazol-2-ylsulfanyl)-acetamide, reference compound] |
| > 5 | > 5 | > 5 | > 10 | > 10 | CCOc1ccc(NC(=O)CSc2nccn2C)cc1 [Compound 156, N-(4-Ethoxy-phenyl)-2-(1-methyl-1H-imidazol-2-ylsulfanyl)-acetamide, reference compound] |
| > 5 | > 5 | > 5 | 0.87 | 0.76 | O=C(CSc1ccccn1)Nc1ccc(C2CCCCC2)cc1 [Compound 182, N-(4-Cyclohexyl-phenyl)-2-(pyridin-2-ylsulfanyl)-acetamide, reference compound] |
| > 5 | > 5 | > 5 | > 10 | > 10 | O=C(CSC1=NCCN1)Nc1ccc(Cl)cc1 [Compound 187, N-(4-Chloro-phenyl)-2-(4,5-dihydro-1H-imidazol-2-ylsulfanyl)-acetamide, reference compound] |
